# Measured values as given in patent US12623988B2, “Scaleable preparation of polyketides” (The Regents of the University of California, priority 2019, dated 2026).
# “Also recorded” adds a separate entry of the source. Like-named read-outs stand apart in the source and are kept apart here.
# Experiments:
# [1] = rcm bond, Hoveyda-Grubbs 2nd generation catalyst, toluene, 110.0 °C, 5.33 h
# [2] = Storage stability of synthetic fragments and intermediates; conditions: for stability at ambient conditions: storage
# [3] = estimated, reference (6); cited from earlier work
# [4] = test system: HCT-116 cells; assay: Cell viability assay for 1 and 1a-1c in HCT-116 cells (CellTiter Aqueous One, GI50); format: cell-based, human; conditions: 0 to 1000 nM, 72 h, result in words, compared to 1
# Procedure: Cell culture. The HCT-116 cell line was cultured in McCoy's 5a (Life Technologies) supplemented with 10% fetal bovine serum (FBS), 2 mM L-glutamine, and 100 U mL^−1 of penicillin and 100 μg mL^−1 of streptomycin at 37° C. in an atmosphere of 5% CO2. Both the HeLa and Caov3 cell lines were maintained in DMEM (Life Technologies) supplemented with 10% FBS, 2 mM L-glutamine, and 100 U mL^−1 of penicillin and 100 μg mL^−1 of streptomycin at 37° C. in an atmosphere of 5% CO2.
# Cell Viability Assays for 1a-1c. HCT-116 cells were cultured in McCoy's 5a (Life Technologies) supplemented with 10% fetal bovine serum (FBS), 2 mM L-glutamine, 100 U mL^−1 penicillin and 100 μg mL^−1 streptomycin at 37° C. in an atmosphere of 5% CO2. HCT-116 cells were plated at […] cells/well in McCoy's 5a containing 10% FBS. Cells were cultured for 24 h, pretreated with 1 or 1a-1c in DMSO ranging from 0 to 1000 nM for 72 h (cell media contained <0.5% DMSO), and then washed with PBS (2×100 μL). 100 μL of PBS was added to each well, followed by 20 μL of CellTiter Aqueous One Solution (Promega). After 2 h at 37° C., absorbance readings were taken at 490 nm (test wavelength) and 690 nm (reference wavelength). GI50 values were calculated in Prism (GraphPad) using at least three biological replicates.
structure (smiles),measurement,setting,value
COc1ccc(C2O[C@H]3C=C[C@H](C)[C@@H](/C(C)=C/I)O[13C](=O)C[C@H](O[Si](C)(C)C(C)(C)C)CC[C@@]3(C)O2)cc1 (stereo partly drawn),"ring closure, yield of all isomers","[1]; from C=C[C@@H]1OC(c2ccc(OC)cc2)O[C@]1(C)CC[C@H](C[13C](=O)O[C@H](/C(C)=C/I)[C@@H](C)C=C)O[Si](C)(C)C(C)(C)C, 6.52 mM",50%
COc1ccc(C2O[C@H]3/C=C/[C@H](C)[C@@H](/C(C)=C/I)OC(=O)C[C@H](O[Si](C)(C)C(C)(C)C)CC[C@@]3(C)O2)cc1 (stereo partly drawn),"ring closure, yield of all isomers","[1]; from C=C[C@@H]1OC(c2ccc(OC)cc2)O[C@]1(C)CC[C@H](CC(=O)O[C@H](/C(C)=C/I)[C@@H](C)C=C)O[Si](C)(C)C(C)(C)C, 5.37 mM",50%
same,"ring closure, yield of all isomers",[1]; from C=C[C@@H]1OC(c2ccc(OC)cc2)O[C@]1(C)CC[C@H](CC(=O)O[C@H](/C(C)=C/I)[C@@H](C)C=C)O[Si](C)(C)C(C)(C)C,51%
"CC[C@H](OC)[C@@H](C)/C=C/CO [compound 13, (4S,5S,E)-5-Methoxy-4-methylhept-2-en-1-ol]",storage stability at 4° C.,[2]; stored at 4° C.,over 2 years
"CC(=O)O[C@H]1/C=C/[C@H](C)[C@@H](/C(C)=C/I)OC(=O)C[C@H](O)CC[C@@]1(C)O [compound 2, (2S,3S,6S,7R,10R,E)-7,10-dihydroxy-2-((E)-1-iodoprop-1-en-2-yl)-3,7-dimethyl-12-oxooxacyclododec-4-en-6-yl acetate]",stability at ambient conditions,[2],stable over six months at ambient conditions
"C#C[C@@H](C)[C@H](O)[C@H]1O[C@@H]1[C@H](C)[C@H](CC)OC [compound 15, (1S,2R)-1-((2R,3R)-3-((2R,3S)-3-methoxypentan-2-yl)oxiran-2-yl)-2-methylbut-3-yn-1-ol]",stability at ambient conditions,[2],stable over six months at ambient conditions
"CC[C@H](OC)[C@@H](C)[C@H]1O[C@@H]1[C@@H](O)[C@H](C)/C=C/C=C(\C)[C@H]1OC(=O)C[C@H](O)CC[C@@](C)(O)[C@@H](OC(C)=O)/C=C/[C@@H]1C [compound 1, 17S-FD-895]",human maximum tolerated dose (MTD),[3],~4 mg/m^2
"CC[C@H](OC)[C@@H](C)[C@H]1O[C@@H]1[C@@H](O)[C@H](C)/C=C/C=C(\C)[C@H]1OC(=O)C[C@@H](O)CC[C@@](C)(O)[C@@H](OC(C)=O)/C=C/[C@@H]1C [1a, 3S,17S-FD-895]",activity (GI50 screening) in human colorectal tumor HCT-116 cells,[4],compromised activity
"CC[C@H](OC)[C@@H](C)[C@H]1O[C@@H]1[C@@H](O)[C@H](C)/C=C/C=C(\C)[C@H]1OC(=O)C[C@H](O)CC[C@@](C)(O)[C@H](OC(C)=O)/C=C/[C@@H]1C [1b, 7R,17S-FD-895]",activity (GI50 screening) in human colorectal tumor HCT-116 cells,[4],compromised activity; also recorded: lack in activity
